Measured values reported in US8536332B2, “Modulating signal transduction pathways with substituted pyridol [2,3-b] pyrazines” (Aeterna Zentaris GmbH, priority 2007, dated 2013).

Columns and labels:
[1] = test system: MDA-MB468; assay: XTT assay, anti-proliferative activity, MDA-MB468; assay type: cell-based; conditions: Homo sapiens, MDA-MB-468; 45 h incubation
Experimental: (§1) The principle of this test is based on the intracellular reduction of the tetrazolium dye XTT (sodium 3′-[1-(phenylaminocarbonyl)-3,4-tetrazolium]bis(4-methoxy-6-nitro)benzenesulphonic acid, Sigma) to a formazan dye by mitochondrial dehydrogenases. The dye is formed only by metabolically active cells. Its photometrically measurable intensity is a quantitative indicator for the presence of living cells. The reduction in the dye formation as a result of incubation of the cells with substances serves as a parameter for the anti-proliferative activity.
(§2) The tumour cell lines (ATCC) were seeded in 96-well microtitre plates in a defined cell count (5000 cells/well for Hct116; 10000 cells/well for MDA MB468), and incubated overnight at 37° C., 5% CO2 and 95% air humidity. The test substances were made up as stock solutions (10 mM) in DMSO. […] The cell plates were then incubated for 45 h at 37° C., 5% CO2 and 95% air humidity.
(§3) For the detection reaction, the XTT substrate was mixed with PMS (N-methyldibenzopyrazine methylsulphate, Sigma) and added to the cells, to result in a final concentration of 325 μg of XTT/ml and 2.5 μg PMS/ml. The mixture was then incubated for 3 h at 37° C., 95% air humidity. Subsequently the formazan salt formed by cellular dehydrogenases was quantified at an absorption of 490 nm.
(§4) The evaluation of the % inhibition values was done by means of the following formula from the values for the optical densities measured in each case at 490 nm:
(§5) The controls were determined 8 fold, the substance samples 2 fold. 0% control contained no cells and the 100% control contained no test substance. The EC50 values were determined with GraphPadPrism.

[2] = molecular target: p38alpha (Homo sapiens, UniProt Q16539); assay: Cell-free kinase assay (ALPHA technology) p38alpha; assay type: biochemical; conditions: 10 μM ATP
Chain of p38alpha (Q16539 whole entry, the tested form may be a part): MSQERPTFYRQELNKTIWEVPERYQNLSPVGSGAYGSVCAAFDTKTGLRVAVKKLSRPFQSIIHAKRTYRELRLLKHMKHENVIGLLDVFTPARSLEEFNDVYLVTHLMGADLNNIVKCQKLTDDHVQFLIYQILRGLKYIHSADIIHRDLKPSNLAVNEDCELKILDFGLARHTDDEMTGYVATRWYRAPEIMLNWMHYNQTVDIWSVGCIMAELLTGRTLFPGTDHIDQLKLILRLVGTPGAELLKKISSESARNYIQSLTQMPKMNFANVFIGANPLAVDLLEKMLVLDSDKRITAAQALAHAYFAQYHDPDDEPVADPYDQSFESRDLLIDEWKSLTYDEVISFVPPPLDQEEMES
Experimental: (§6) The inhibitory effect of the compounds of the invention was tested on various human serine/threonine kinases, tyrosine kinases and lipid kinases in enzymatic assays. Recombinant human kinases, for example PI3Kalpha, -beta, -gamma, -delta, Erk2, p38alpha, p38gamma, Jnk1, Jnk2 and others were used, in some cases as full-length kinases, in some cases as truncated fragments—but at least consisting of the functional kinase domains. The commercial kinase proteins (Proqinase, Upstate) were used as recombinant fusion proteins with GST (glutathione S-transferase) tag or His tag. Depending on the substrate type, the different kinase reactions were quantified by suitable ALPHA™ beads (PerkinElmer).
(§7) The kinase assays for PI3K and Erk are described in detail and selected test results are cited below. […] Subsequently, the kinase reaction was stopped by adding the ALPHA bead mix (10 μg/ml, #6760603/PerkinElmer), preincubated with 1 nM GST:Grp1 fusion protein (Upstate) and […] (#C-39B6/Echelon) in 50 mM Hepes, 50 mM NaCl, 50 mM EDTA and 0.1% BSA, and left to stand overnight. • b) Erk2-ALPHA: The test substance, 0.625 ng of Erk2 (#14-173, Upstate), 10 μM ATP and 15 nM biotinylated MBP (myelin basic protein) substrate were incubated on a 384-well Optiplate (Perkin Elmer) in a volume of 15 μl for 1 h in 25 mM Tris, 10 mM MgCl2, 0.1% Tween-20, 100 μM NaVO4, 2 mM DTT at pH 7.5. The kinase reaction was stopped by adding 10 μl of the ALPHA bead mix (10 μg/ml, #6760617/PerkinElmer), pre-incubated with anti-phospho MBP antibody (320 pM, #05-429/Upstate), in 25 mM Tris, 200 mM NaCl, 100 mM EDTA and 0.3% BSA, and left to stand overnight.
(§8) The luminiscence was detected the next morning in a Fusion™ alpha instrument (Perkin Elmer).
(§9) The calculation of % inhibition values per substance concentration was done by means of the following formula from the raw data determined in the Fusion™ alpha:
(§10) The controls were determined 8 fold and the substance samples 2 fold. 0% control contained neither any ATP nor any substrate. The 100% control contained no test substance. The IC50 values were determined with GraphPadPrism.

[3] = test system: T1, Jnk1 + Jnk2; assay: Cell-free kinase assay (ALPHA technology) Jnk1 + Jnk2; assay type: biochemical, human; conditions: 10 μM ATP
T1 construct: fused on or other part: GST tag or His tag (commercial recombinant fusion proteins from Proqinase or Upstate)
Experimental: as §6, §7, §8, §9, §10

[4] = test system: Phospho-p90RSK (S380); assay: Cellular substrate phosphorylation (Western blotting), Erk →pRsk; assay type: cell-based, human; conditions: for inhibition at 50 µM: Homo sapiens, 5 h; for inhibition of phospho-Rsk / Raf-Mek-Erk pathway, in words: Western blotting, concentrations of 5-50 μM
Experimental: (§11) This method enables a statement of whether the kinase modulator investigated achieves the desired effect in a cellular context too, i.e., in this case, a substrate protein downstream of the target kinase is examined for its phosphorylation status. To this end, the cells incubated with substance are lysed and the overall protein is separated on a reducing polyacrylamide gel. Subsequently, the proteins are transferred to a PVDF membrane by Western blotting and the substrate bands sought are made visible with specific antibodies and a suitable detection method. The substrate proteins down-stream of the target kinases are detected simultaneously with an anti-phospho antibody which is specific in each case and a total antibody which recognizes the substrate total protein. The duplex technology of the ODYSSEY imager (LiCOR) enables this simultaneous measurement. The intensity of the total substrate bands is employed to normalize and quantify the phosphorylation inhibition or activation.
(§12) Suitable tumor cell lines (e.g. BxPC3, Hct116 or MDA MB468) were seeded into 6-well microtitre plates in a defined cell count (e.g. 350 000 cells/well for BxPC3 and Hct116) in the particular standard complete media and then incubated overnight at 37° C., 5% CO2 and 95% air humidity. Afterwards, the cells were incubated for 24 h under serum-reduced conditions, i.e. in the particular medium except at only 0.25% serum. The test substances were made up as stock solutions (10 mM) in DMSO and incubated with the cells at final concentrations of 5, 15.8 and 50 μM for 5 h. This was followed by cell lysis in 25 mM Tris, 150 mM NaCl, 10 mM sodium pyrophosphate, 2 mM EGTA, 25 mM beta-glycerophosphate, 25 mM NaF, 10% glycerol, 0.75% NP-40, 100 μM NaVO4 buffer. After protein quantification using the BCA (bicinchonic acid protein assay kit, Sigma) assay, amounts of protein of about 20 μg per track were separated on a Lämmli polyacrylamide gel and then transferred onto a PVDF membrane (Millipore) by semi-dry Western blotting at 0.8 mA/cm^2 for 1 h. This was followed by prehybridization of the membrane for 1 hour in I-block reagent (Applied Biosystems) and overnight simultaneous incubation with the specific antibodies. […] After the membrane had been washed, the secondary antibodies were incubated with anti-rabbit IR Dye 800 (#611-732-127, Rockland) for the phospho antibodies and anti-goat Alexa Fluor 680 (#A-21081, […]) for the total protein antibodies. After incubation for 30 min at room temperature in the dark, the hybridization of the detection antibody was detected on the membrane by scanning in an ODYSSEY imager (LiCOR).

[5] = test system: Hct116; assay: XTT assay, anti-proliferative activity, Hct116; assay type: cell-based; conditions: Homo sapiens, HCT-116; 45 h incubation
Experimental: as §1, §2, §3, §4, §5

[6] = molecular target: T2, Erk2 (Mus musculus, UniProt P63085); assay: Cell-free kinase assay Erk2-ALPHA; assay type: biochemical, human; conditions: 10 μM ATP
T2 construct: purchased Upstate #14-173
T2 sequence (P63085 whole entry): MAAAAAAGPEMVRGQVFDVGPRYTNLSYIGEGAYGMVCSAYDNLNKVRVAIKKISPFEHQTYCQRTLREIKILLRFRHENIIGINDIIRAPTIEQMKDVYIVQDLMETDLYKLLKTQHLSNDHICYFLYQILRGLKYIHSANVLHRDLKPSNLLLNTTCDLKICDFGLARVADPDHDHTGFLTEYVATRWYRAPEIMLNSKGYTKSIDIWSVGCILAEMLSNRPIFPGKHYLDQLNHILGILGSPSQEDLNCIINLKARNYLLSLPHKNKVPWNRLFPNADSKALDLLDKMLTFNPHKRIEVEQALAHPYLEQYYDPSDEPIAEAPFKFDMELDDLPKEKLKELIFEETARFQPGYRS
Experimental: as §6, §7, §8, §9, §10

[7] = Cell-free kinase assay Erk2-ALPHA; assay type: biochemical, human; conditions: cell-free kinase assay; MAPK = Erk2, p38alpha, Jnk1+Jnk2 of Table 1
Experimental: as §6, §7, §8, §9, §10

[8] = test system: Phospho-Akt (Ser 473); assay: Cellular substrate phosphorylation (Western blotting), PI3K →pAkt; assay type: cell-based, human; conditions: for inhibition at 50 µM: Homo sapiens, 5 h; for inhibition of cellular phospho-Akt / PI3K-Akt pathway, in words: Western blotting, concentrations of 5-50 μM
Experimental: as §11, §12

[9] = molecular target: T3, PI3Kalpha (Homo sapiens, UniProt P42336); assay: Cell-free kinase assay PI3K-ALPHA; assay type: biochemical
T3 construct: purchased Upstate #14-602
T3 sequence (P42336 whole entry): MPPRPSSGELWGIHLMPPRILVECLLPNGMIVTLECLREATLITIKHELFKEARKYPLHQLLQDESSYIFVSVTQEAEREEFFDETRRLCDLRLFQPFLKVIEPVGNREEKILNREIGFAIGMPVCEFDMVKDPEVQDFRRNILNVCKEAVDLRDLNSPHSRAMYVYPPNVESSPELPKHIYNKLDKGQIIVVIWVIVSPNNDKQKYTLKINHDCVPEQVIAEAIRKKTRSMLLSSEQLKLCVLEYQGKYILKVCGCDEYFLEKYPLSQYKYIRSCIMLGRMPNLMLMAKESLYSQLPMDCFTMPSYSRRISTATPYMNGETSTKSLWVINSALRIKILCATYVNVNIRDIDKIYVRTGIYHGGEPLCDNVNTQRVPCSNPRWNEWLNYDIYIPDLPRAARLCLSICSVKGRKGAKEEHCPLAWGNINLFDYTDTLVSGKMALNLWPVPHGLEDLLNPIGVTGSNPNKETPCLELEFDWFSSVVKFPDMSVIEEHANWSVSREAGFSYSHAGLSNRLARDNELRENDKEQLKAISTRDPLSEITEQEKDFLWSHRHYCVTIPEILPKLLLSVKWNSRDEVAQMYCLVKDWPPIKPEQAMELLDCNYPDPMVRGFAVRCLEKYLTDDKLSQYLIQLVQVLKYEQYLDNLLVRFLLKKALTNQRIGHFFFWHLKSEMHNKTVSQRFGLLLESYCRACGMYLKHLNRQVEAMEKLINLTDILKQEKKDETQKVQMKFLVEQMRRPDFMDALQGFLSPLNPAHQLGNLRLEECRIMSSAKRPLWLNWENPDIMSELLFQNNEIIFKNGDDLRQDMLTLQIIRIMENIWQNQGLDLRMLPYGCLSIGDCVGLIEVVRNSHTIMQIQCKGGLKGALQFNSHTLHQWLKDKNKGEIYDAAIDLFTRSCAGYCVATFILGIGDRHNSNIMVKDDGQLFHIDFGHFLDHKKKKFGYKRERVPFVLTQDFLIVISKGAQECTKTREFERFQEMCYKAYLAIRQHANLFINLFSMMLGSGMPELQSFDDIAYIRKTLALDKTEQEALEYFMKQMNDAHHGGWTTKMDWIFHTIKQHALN
T3 sequence (P27986 whole entry partner): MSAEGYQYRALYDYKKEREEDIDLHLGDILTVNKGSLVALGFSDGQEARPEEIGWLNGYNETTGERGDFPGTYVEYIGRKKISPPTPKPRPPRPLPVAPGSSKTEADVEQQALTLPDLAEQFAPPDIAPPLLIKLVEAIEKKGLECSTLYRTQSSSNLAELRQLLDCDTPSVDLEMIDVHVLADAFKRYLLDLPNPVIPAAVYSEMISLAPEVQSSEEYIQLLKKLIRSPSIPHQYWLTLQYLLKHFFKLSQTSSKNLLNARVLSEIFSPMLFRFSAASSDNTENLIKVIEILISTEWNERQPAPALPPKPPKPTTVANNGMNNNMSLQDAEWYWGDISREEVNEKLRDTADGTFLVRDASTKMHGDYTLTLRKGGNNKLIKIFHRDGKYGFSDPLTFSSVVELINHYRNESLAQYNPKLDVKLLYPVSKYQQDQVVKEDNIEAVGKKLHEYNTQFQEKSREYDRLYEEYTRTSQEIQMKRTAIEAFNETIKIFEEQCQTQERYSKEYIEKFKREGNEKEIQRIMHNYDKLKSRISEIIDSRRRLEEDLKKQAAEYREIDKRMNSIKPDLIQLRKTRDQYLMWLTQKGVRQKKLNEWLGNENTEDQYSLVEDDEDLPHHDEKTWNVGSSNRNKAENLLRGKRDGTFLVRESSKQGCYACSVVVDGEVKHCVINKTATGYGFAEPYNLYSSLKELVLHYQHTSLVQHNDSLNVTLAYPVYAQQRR
Experimental: as §6, §7, §8, §9, §10

CCNC(=O)Nc1ccc2ncc(-c3ccc(OC)c(O)c3)nc2n1 [Compound 46, 1-Ethyl-3-[3-(3-hydroxy-4-methoxy-phenyl)-pyrido[2,3-b]pyrazin-6-yl]-urea]
EC50 [1]: < 10 µM
IC50 [2]: > 100 µM
IC50 [3]: < 1 µM
inhibition at 50 µM [4]: 100%
inhibition of phospho-Rsk / Raf-Mek-Erk pathway, in words [4]: inhibit both
EC50 [5]: < 10 µM
IC50 [6]: < 0.5 µM
Erk2 / MAPK inhibition, in words [7]: inhibition of PI3K and Erk2
melting point: > 270 °C
inhibition at 50 µM [8]: 40%
inhibition of cellular phospho-Akt / PI3K-Akt pathway, in words [8]: inhibit both
PI3K inhibition, in words [9]: inhibition of PI3K

CCNC(=O)Nc1ccc2ncc(-c3ccc(OC(C)=O)c(OC)c3)nc2n1 [Compound 54, Acetic acid 4-[6-(3-ethyl-ureido)-pyrido[2,3-b]pyrazin-3-yl]-2-methoxy-phenyl ester]
EC50 [1]: < 5 µM
IC50 [2]: > 100 µM
IC50 [3]: < 31.6 µM
inhibition at 50 µM [4]: 90%
inhibition of phospho-Rsk / Raf-Mek-Erk pathway, in words [4]: inhibit both
EC50 [5]: < 5 µM
IC50 [6]: < 0.5 µM
Erk2 / MAPK inhibition, in words [7]: inhibition of PI3K and Erk2
melting point: 227 to 229 °C
inhibition at 50 µM [8]: 100%
inhibition of cellular phospho-Akt / PI3K-Akt pathway, in words [8]: inhibit both
PI3K inhibition, in words [9]: inhibition of PI3K

CCNC(=O)Nc1cnc2ccc(-c3ccc(O)c(OC)c3)nc2n1 [Compound 5, 1-Ethyl-3-[6-(4-hydroxy-3-methoxy-phenyl)-pyrido[2,3-b]pyrazin-3-yl]-urea]
EC50 [1]: < 1 µM
IC50 [2]: > 100 µM
IC50 [3]: > 10 µM
inhibition at 50 µM [4]: 0%
inhibition of phospho-Rsk / Raf-Mek-Erk pathway, in words [4]: phospho-Rsk is not inhibited
EC50 [5]: < 2 µM
IC50 [6]: > 100 µM
inhibition at 50 µM [8]: 100%
inhibition of cellular phospho-Akt / PI3K-Akt pathway, in words [8]: total inhibition of cellular phospho-Akt at compound concentrations <50 μM
PI3K inhibition, in words [9]: low IC50 values against PI3K

CCNC(=O)Nc1cnc2ccc(-c3ccc(O)c(Cl)c3)nc2n1 [Compound 637, 1-[6-(3-Chloro-4-hydroxy-phenyl)-pyrido[2,3-b]pyrazin-3-yl]-3-ethyl-urea]
EC50 [1]: < 10 µM
IC50 [2]: > 100 µM
IC50 [3]: > 100 µM
EC50 [5]: < 10 µM
IC50 [6]: > 100 µM
melting point: > 270 °C

CCNC(=O)Nc1ccc2ncc(Nc3ccccc3O)nc2n1 [Compound 55, 1-Ethyl-3-[3-(2-hydroxy-phenylamino)-pyrido[2,3-b]pyrazin-6-yl]-urea]
EC50 [1]: < 5 µM
IC50 [2]: < 10 µM
IC50 [3]: > 100 µM
inhibition at 50 µM [4]: 0%
inhibition of phospho-Rsk / Raf-Mek-Erk pathway, in words [4]: do not block the Raf-Mek-Erk pathway
EC50 [5]: < 5 µM
IC50 [6]: > 100 µM
Erk2 / MAPK inhibition, in words [7]: no or only moderate MAPK inhibition
melting point: 243 to 246 °C
inhibition at 50 µM [8]: 90%
inhibition of cellular phospho-Akt / PI3K-Akt pathway, in words [8]: cellular PI3K selectivity
PI3K inhibition, in words [9]: PI3K inhibition

CCNC(=O)Nc1cnc2ccc(-c3cc(C)c(O)c(C)c3)nc2n1 [Compound 181, 1-Ethyl-3-[6-(4-hydroxy-3,5-dimethyl-phenyl)-pyrido[2,3-b]pyrazin-3-yl]-urea]
EC50 [1]: < 10 µM
IC50 [2]: < 50 µM
IC50 [3]: > 100 µM
EC50 [5]: < 10 µM
IC50 [6]: > 100 µM
melting point: > 240 °C

CCNC(=O)Nc1ccc2ncc(Nc3cccc(O)c3)nc2n1 [Compound 56, 1-Ethyl-3-[3-(3-hydroxy-phenylamino)-pyrido[2,3-b]pyrazin-6-yl]-urea]
EC50 [1]: < 5 µM
IC50 [2]: < 10 µM
IC50 [3]: > 10 µM
inhibition at 50 µM [4]: 0%
inhibition of phospho-Rsk / Raf-Mek-Erk pathway, in words [4]: do not block the Raf-Mek-Erk pathway
EC50 [5]: < 10 µM
IC50 [6]: < 10 µM
Erk2 / MAPK inhibition, in words [7]: no or only moderate MAPK inhibition
melting point: 270 to 273 °C
inhibition at 50 µM [8]: 100%
inhibition of cellular phospho-Akt / PI3K-Akt pathway, in words [8]: cellular PI3K selectivity
PI3K inhibition, in words [9]: PI3K inhibition

CNC(=S)Nc1cnc2ccc(-c3ccc(O)c(OC)c3)nc2n1 [Compound 526, 1-[6-(4-Hydroxy-3-methoxy-phenyl)-pyrido[2,3-b]pyrazin-3-yl]-3-methyl-thiourea]
EC50 [1]: < 1 µM
IC50 [2]: < 50 µM
IC50 [3]: > 100 µM
EC50 [5]: < 5 µM
IC50 [6]: > 100 µM
melting point: 279 to 280 °C

CCNC(=O)Nc1ccc2ncc(Nc3cccc(OC(F)F)c3)nc2n1 [Compound 73, 1-[3-(3-Difluoromethoxy-phenylamino)-pyrido[2,3-b]pyrazin-6-yl]-3-ethyl-urea]
EC50 [1]: < 5 µM
IC50 [2]: > 10 µM
IC50 [3]: > 100 µM
EC50 [5]: < 5 µM
IC50 [6]: > 100 µM
Erk2 / MAPK inhibition, in words [7]: no or only moderate MAPK inhibition
PI3K inhibition, in words [9]: PI3K inhibition
